Measurements as given in US9919060B2 (University Court of the University of Dundee, priority 2009, dated 2018).
“Also recorded” adds a separate entry of the source.

What was measured:
CYP1A2 = biological target: T1, CYP1A2 (Homo sapiens, UniProt P05177); test: Fragmentation of benzofuran ether and carbamate linked coumarins by Supersomal CYP1A2 (coumarin anion release, kinetic fluorimetry); assay type: biochemical; conditions: 10 pmol enzyme, 10 μmol dm^−3 prodrug, NADPH, pH 7.4, 37° C., mean ± standard deviation of three measurements
T1 construct: purchased BD Gentest, Oxford, UK
T1 sequence (P05177 2-516 limits assumed): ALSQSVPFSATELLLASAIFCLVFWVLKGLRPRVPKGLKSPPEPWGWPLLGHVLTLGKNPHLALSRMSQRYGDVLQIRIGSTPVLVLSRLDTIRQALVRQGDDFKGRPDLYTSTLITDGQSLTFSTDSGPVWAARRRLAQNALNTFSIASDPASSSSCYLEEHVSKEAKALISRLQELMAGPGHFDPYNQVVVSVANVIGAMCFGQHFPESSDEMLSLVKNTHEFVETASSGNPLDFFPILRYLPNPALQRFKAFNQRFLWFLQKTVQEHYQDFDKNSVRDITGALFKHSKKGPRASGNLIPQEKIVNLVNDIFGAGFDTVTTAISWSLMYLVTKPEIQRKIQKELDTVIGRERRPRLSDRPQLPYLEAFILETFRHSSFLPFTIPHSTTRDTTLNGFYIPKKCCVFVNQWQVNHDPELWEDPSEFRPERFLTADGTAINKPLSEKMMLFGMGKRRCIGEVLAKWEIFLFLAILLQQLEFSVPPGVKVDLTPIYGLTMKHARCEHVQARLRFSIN
Procedure: (§1) Supersomal™ enzyme metabolism was started by adding a stock solution of prodrug dissolved in DMSO to give a final concentration of 10 μmol dm^−3 prodrug and 0.5% DMSO. HLM screening used 60 microliter microsomes, 100 μmol dm^−3 NADPH, in 10 mmol dm^−3 potassium phosphate buffer at pH 7.4 and 37 OC, in 1.5 ml total reaction volume.
(§2) Therefore, enzymatic hydroxylation of the hetero-aromatic trigger and resultant linker fragmentation can be monitored in real time by release of the coumarin anion by kinetic fluorimetry.
(§3) Release of the coumarin anion indicative of linker fragmentation was monitored using a 1 cm path length fluorescence cell in a Cary Eclipse kinetic flourimeter with excitation and emission slits set at 5 nm. Coumarin anion release from compounds of the invention was detected at the excitation wavelength λex=350·nm and the emission wavelength λem=450 nm. Change in fluorescence intensity was quantified against a linear calibration plot of fluorescence intensity versus coumarin concentration (0 to 3.5 μmol dm^−3) in 10 mmol dm^−3 potassium phosphate buffer at pH 7.4 using the same instrument settings as for enzyme metabolism.

CYP1A1 = biological target: T2, CYP1A1 (Homo sapiens, UniProt P04798); test: Fragmentation of benzofuran ether and carbamate linked coumarins by Supersomal CYP1A1 (coumarin anion release, kinetic fluorimetry); assay type: biochemical; set-up: purchased BD Gentest, Oxford, UK; conditions: 10 pmol enzyme, 10 μmol dm^−3 prodrug, NADPH, pH 7.4, 37° C., mean ± standard deviation of three measurements
T2 sequence (P04798 1-512): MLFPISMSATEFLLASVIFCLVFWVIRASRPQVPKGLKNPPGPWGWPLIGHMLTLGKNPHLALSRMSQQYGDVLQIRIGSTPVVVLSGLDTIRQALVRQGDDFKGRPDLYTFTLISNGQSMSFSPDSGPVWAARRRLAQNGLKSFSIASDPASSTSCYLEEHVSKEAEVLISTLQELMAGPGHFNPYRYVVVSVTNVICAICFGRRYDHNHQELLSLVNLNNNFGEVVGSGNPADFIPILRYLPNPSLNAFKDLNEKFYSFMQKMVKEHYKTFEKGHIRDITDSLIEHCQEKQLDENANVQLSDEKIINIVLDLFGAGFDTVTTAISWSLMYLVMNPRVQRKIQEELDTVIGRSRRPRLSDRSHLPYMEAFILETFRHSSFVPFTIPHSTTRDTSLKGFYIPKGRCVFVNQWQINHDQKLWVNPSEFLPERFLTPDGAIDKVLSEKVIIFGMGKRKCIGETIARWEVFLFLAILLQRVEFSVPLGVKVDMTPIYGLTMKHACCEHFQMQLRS
Procedure: as §1, §2, §3

[1] = system: human liver microsomes (HLM); test: Fragmentation of benzofuran ether and carbamate linked coumarins by pooled human liver microsomes (coumarin anion release); conditions: for Specific fragmentation activity, HLM: 60 μl HLM in 1.5 ml final reaction volume, NADPH, pH 7.4, mean ± standard deviation of three measurements
Procedure: as §1, §2, §3

CYP1B1 [2] = biological target: T3, CYP1B1 (Homo sapiens, UniProt Q16678); test: Fragmentation of benzofuran ether and carbamate linked coumarins by Supersomal CYP1B1 (coumarin anion release, kinetic fluorimetry); assay type: biochemical; set-up: purchased BD Gentest, Oxford, UK; conditions: 10 pmol enzyme, 10 μmol dm^−3 prodrug, NADPH, pH 7.4, 37° C., mean ± standard deviation of three measurements
T3 sequence (Q16678 1-543): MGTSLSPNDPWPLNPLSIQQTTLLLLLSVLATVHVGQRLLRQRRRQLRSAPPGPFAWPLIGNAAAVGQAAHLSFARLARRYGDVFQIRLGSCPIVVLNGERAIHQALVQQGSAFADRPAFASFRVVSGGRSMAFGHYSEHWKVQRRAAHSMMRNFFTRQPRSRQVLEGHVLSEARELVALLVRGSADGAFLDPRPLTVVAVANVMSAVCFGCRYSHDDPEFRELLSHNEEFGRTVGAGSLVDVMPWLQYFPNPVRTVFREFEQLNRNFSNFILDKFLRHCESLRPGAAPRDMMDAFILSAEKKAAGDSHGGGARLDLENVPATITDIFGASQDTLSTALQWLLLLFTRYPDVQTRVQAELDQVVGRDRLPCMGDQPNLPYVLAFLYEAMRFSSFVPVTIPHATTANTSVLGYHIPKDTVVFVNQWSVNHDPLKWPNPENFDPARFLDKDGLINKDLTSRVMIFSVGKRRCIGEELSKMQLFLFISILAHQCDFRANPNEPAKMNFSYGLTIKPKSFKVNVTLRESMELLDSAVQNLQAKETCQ
Procedure: as §1, §2, §3

CYP1B1 [3] = biological target: T3, CYP1B1; test: CYP1B1 substrate prediction model (Gaussian Kernel weighted k-NN)
[4] = system: UTSCC-14 primary human tumour xenograft; test: Anti-tumour activity in primary human tumour xenograft model (UTSCC-14, subcutaneous, nude mice); assay type: in vivo; conditions: for Tumour growth delay at 28 days: 2 cycles: daily for 5 days/2 days off
Procedure: Primary UTSCC-14 cell lines 3×10^6 were implanted subcutaneously in the flank of nude mice. Mice were randomized to 10 animals per group when the tumour volume was 100 to 150 mm^3. SU046-04 was given intraperitoneally at 12, 25 and 50 mg/Kg in PBS versus versus vehicle alone for 2 cycles: daily for 5 days/2 days off. Tumour volume was measured every 4 days using calipers. […] Tumour growth delay at 28 days was 31% at 12 mg/Kg, 56% at 25 mg/Kg, and 90% at 50 mg/Kg with 4/10 complete responses.

Question: Which results are given for `Cc1cc(=O)oc2cc(OCc3cc4ccccc4o3)ccc12` [SU010A, 7-(benzofuran-2-ylmethoxy)-4-methyl-2H-chromen-2-one]?
Answer: Specific fragmentation activity, CYP1A2 (CYP1A2; listed as SU10A): fragmented; Specific fragmentation activity, CYP1A1 (CYP1A1; listed as SU10A): fragmented; Specific fragmentation activity, HLM ([1]; listed as SU10A): fragmented; Specific fragmentation activity, CYP1B1 (CYP1B1 [2]; listed as SU10A): fragmented

Question: Which “Specific fragmentation activity, CYP1A2” value (CYP1A2) does the source give for `Cc1cc(=O)oc2cc(NC(=O)OCc3cc4ccccc4o3)ccc12` [SU018-03, benzofuran-2-ylmethyl 4-methyl-2-oxo-2H-chromen-7-ylcarbamate] here?
Answer: Its value is “no release”.

Question: What about the “Specific fragmentation activity, HLM” value [1] of the same compound?
Answer: The value was “no release”.

Question: What about the “Specific fragmentation activity, CYP1B1” value (CYP1B1 [2]) of the same compound?
Answer: The value was “no release”.

Question: With `COc1cc(OC)c2oc(COP(=O)(NCCCl)NCCCl)cc2c1` [SU025-04] as the compound, how does the “% CYP1B1 substrate inhibition, accuracy (predicted versus actual)” value (CYP1B1 [3]) read?
Answer: The value was 96%.

Question: Which results are given for `COc1cc(OC)c2oc(COP(=O)(NCCBr)NCCBr)cc2c1` [SU046-04]?
Answer: Tumour growth delay at 28 days ([4]; 12 mg/Kg intraperitoneally): 31%; Tumour growth delay at 28 days ([4]; 25 mg/Kg intraperitoneally): 56%; Tumour growth delay at 28 days ([4]; 50 mg/Kg intraperitoneally): 90%; Complete responses ([4]; 50 mg/Kg intraperitoneally, 10 animals per group): 4/10; Adverse effects and body weight loss ([4]; after highest exposure 250 mg/Kg): No observed adverse effects or significant body weight loss; Tumour growth compared to the vehicle alone ([4]; all three treatment arms: 12, 25 and 50 mg/Kg intraperitoneally): significant inhibition of tumour growth; % CYP1B1 substrate inhibition, accuracy (predicted versus actual) (CYP1B1 [3]): 96%

Question: Which “Specific fragmentation activity, CYP1A2” value (CYP1A2) does the source give for `Cc1cc(=O)oc2cc(OCc3cc4cc(F)cc(F)c4o3)ccc12` [VG016-05, 7-((5,7-difluorobenzofuran-2-yl)methoxy)-4-methyl-2H-chromen-2-one] here?
Answer: Its value is “no release”.

Question: And the “% CYP1B1 substrate inhibition, accuracy (predicted versus actual)” value (CYP1B1 [3])?
Answer: Its value is 82%.

Question: And the “Specific fragmentation activity, CYP1A1” value (CYP1A1)?
Answer: The value was “no release”.

Question: And the “Specific fragmentation activity, HLM” value [1]?
Answer: The value was “no release”.

Question: What about the “Specific fragmentation activity, CYP1B1” value (CYP1B1 [2]) of the same compound?
Answer: Its value is “no fragmentation of the linker; also recorded: no release”.

Question: And the “Specific fragmentation activity, CYP1B1” value (CYP1B1 [2]; listed as VG016-04)?
Answer: The value was “inhibits CYP1 isoenzyme and HLM-induced fragmentation”.

Question: How did the “Specific fragmentation activity, CYP1A2” value (CYP1A2) turn out when `COc1ccc2oc(COC(=O)Nc3ccc4c(C)cc(=O)oc4c3)cc2c1` [VG032-05, (5-methoxybenzofuran-2-yl)methyl 4-methyl-2-oxo-2H-chromen-7-ylcarbamate] was run?
Answer: Its value is “no release”.

Question: How did the “Specific fragmentation activity, CYP1A2” value (CYP1A2) turn out when `COc1cc(OC)c2oc(COc3ccc4c(C)cc(=O)oc4c3)cc2c1` [VG035-05, 7-((5,7-dimethoxybenzofuran-2-yl)methoxy)-4-methyl-2H-chromen-2-one] was run?
Answer: Its value is “no linker fragmentation; also recorded: no release”.

Question: And the “% CYP1B1 substrate inhibition, accuracy (predicted versus actual)” value (CYP1B1 [3])?
Answer: Its value is 96%.

Question: And the “Specific fragmentation activity, CYP1A1” value (CYP1A1)?
Answer: The value was “no linker fragmentation; also recorded: no release”.

Question: What about the “Specific fragmentation activity, HLM” value [1] of the same compound?
Answer: The value was “no linker fragmentation; also recorded: no release”.

Question: What does the source list for `Cc1cc(=O)oc2cc(NC(=O)OCc3cc4cc(Br)ccc4o3)ccc12` [VG036-05, (5-bromobenzofuran-2-yl)methyl 4-methyl-2-oxo-2H-chromen-7-ylcarbamate]?
Answer: Specific fragmentation activity, CYP1A2 (CYP1A2): no release; Specific fragmentation activity, CYP1A1 (CYP1A1): no release; Specific fragmentation activity, HLM [1]: no release; Specific fragmentation activity, CYP1B1 (CYP1B1 [2]): no release

Question: For `COc1cc(OC)c2oc(COC(=O)Nc3ccc4c(C)cc(=O)oc4c3)cc2c1` [VG041-05, (5,7-dimethoxybenzofuran-2-yl)methyl 4-methyl-2-oxo-2H-chromen-7-ylcarbamate], which “Specific fragmentation activity, CYP1A2” value (CYP1A2) is on record?
Answer: Its value is “no release”.

Question: And the “Specific fragmentation activity, HLM” value [1]?
Answer: The value was “no release”.

Question: And the “Specific fragmentation activity, CYP1B1” value (CYP1B1 [2])?
Answer: Its value is “not CYP1A2 or CYP1B1; also recorded: no release”.

Question: Which “% CYP1B1 substrate inhibition, accuracy (predicted versus actual)” value (CYP1B1 [3]) does the source give for `CCOc1ccc2nc3ccc(=O)cc-3oc2c1` [ethoxyresorufin, 7-ethoxyresorufin] here?
Answer: Its value is 95%.

Question: With `C=C[C@H]1C[N@@]2CC[C@H]1C[C@@H]2[C@@H](O)c1ccnc2ccc(OC)cc12` [quinidine] as the compound, how does the “% CYP1B1 substrate inhibition, accuracy (predicted versus actual)” value (CYP1B1 [3]) read?
Answer: Its value is 64%.

Question: For `Oc1ccc(C=Cc2cc(O)cc(O)c2)cc1` [resveratrol], which “% CYP1B1 substrate inhibition, accuracy (predicted versus actual)” value (CYP1B1 [3]) is on record?
Answer: Its value is 95%.

Question: With `Nc1ccc(S(=O)(=O)Nc2ccnn2-c2ccccc2)cc1` [sulfaphenazole] as the compound, how does the “% CYP1B1 substrate inhibition, accuracy (predicted versus actual)” value (CYP1B1 [3]) read?
Answer: Its value is 68%.

Question: Which “Effect of α-naphthoflavone on HLM-mediated SU10A fragmentation (coumarin release)” value ([1]; HLM, inclusion of 10 μmol dm^−3 α-naphthoflavone) does the source give for `O=c1cc(-c2ccccc2)oc2c1ccc1ccccc12` [α-napthoflavone, α-naphthoflavone, reference compound] here?
Answer: Its value is “inhibits SU10A fragmentation”.

Question: For `C[C@]12CC[C@@H]3c4ccc(O)cc4CC[C@H]3[C@@H]1CC[C@@H]2O` [β-estradiol], which “% CYP1B1 substrate inhibition, accuracy (predicted versus actual)” value (CYP1B1 [3]) is on record?
Answer: The value was 95%.
